Reference: ChEMBL document CHEMBL5260858, “Targeting mycobacterial membranes and membrane proteins: Progress and limitations” (Bioorg Med Chem, 2023)
In brackets after ≈: the same amount, converted by molar mass.

What was measured:
[1] = system: Mycobacterium tuberculosis; assay: Antitubercular activity against Mycobacterium tuberculosis H37Rv ATCC 27294 infected in african green monkey Vero cells assessed as bacterial growth inhibition incubated for 6 days by microplate alamar blue assay; type: functional; conditions: H37Rv ATCC 27294, 144 h, time 6 day
[2] = system: Mycobacterium tuberculosis; assay: Antitubercular activity against Mycobacterium tuberculosis Erdman ATCC 35801 infected in RAW264.7 cells assessed as inhibition of intracellular bacterial growth incubated for 6 days by microplate alamar blue assay; type: functional; design: scale not given: the % may be the effect or the level left; conditions: time 6 day
[3] = Selectivity index, ratio of IC50 for cytotoxicity against African green monkey Vero cells to MIC for antitubercular activity against Mycobacterium tuberculosis H37Rv ATCC 27294; type: toxicity, cell-based; conditions: read-out: Selectivity Index
[4] = system: Mycobacterium tuberculosis; assay: Antitubercular activity against Mycobacterium tuberculosis H37Rv assessed as bacterial growth inhibition; type: functional
[5] = system: Mycobacterium avium; assay: Antitubercular activity against Mycobacterium avium assessed as bacterial growth inhibition; type: functional
[6] = system: Mycolicibacterium smegmatis; assay: Antitubercular activity against Mycobacterium smegmatis ATCC 607 assessed as zone of inhibition incubated 30 hrs by Kirby-Bauer disc diffusion assay; type: functional
[7] = system: Mycobacterium tuberculosis; assay: In vivo antimycobacterial activity against Mycobacterium tuberculosis H37Rv infected in C57BL/6 mouse assessed as reduction in bacterial load in lung at 10 mg/kg, po and measured after 10 days by CFU analysis; type: functional; conditions: time 10 day
[8] = system: Mycobacterium tuberculosis; assay: In vivo antimycobacterial activity against Mycobacterium tuberculosis H37Rv infected in C57BL/6 mouse assessed as reduction in bacterial load in lung at 30 mg/kg, po and measured after 10 days by CFU analysis; type: functional; conditions: time 10 day
[9] = system: Mycobacterium tuberculosis; assay: In vivo antimycobacterial activity against Mycobacterium tuberculosis H37Rv infected in C57BL/6 mouse assessed as reduction in bacterial load in spleen at 10 mg/kg, po and measured after 10 days by CFU analysis; type: functional; conditions: time 10 day
[10] = system: Mycobacterium tuberculosis; assay: In vivo antimycobacterial activity against Mycobacterium tuberculosis H37Rv infected in C57BL/6 mouse assessed as reduction in bacterial load in spleen at 30 mg/kg, po and measured after 10 days by CFU analysis; type: functional; conditions: time 10 day
[11] = system: Mycobacterium tuberculosis; assay: Antitubercular activity against Mycobacterium tuberculosis H37Rv TMC102 assessed as bacterial growth inhibition; type: functional
[12] = system: Mycolicibacterium smegmatis; assay: Antitubercular activity against Mycobacterium smegmatis assessed as bacterial growth inhibition; type: functional
[13] = system: Mycobacterium tuberculosis; assay: In vivo antimycobacterial activity against Mycobacterium tuberculosis H37Rv infected in BALB/c mouse assessed as reduction in bacterial load in lung at 50 mg/kg, po and measured after 3 weeks; type: functional
[14] = system: Mycobacterium tuberculosis; assay: In vivo antimycobacterial activity against Mycobacterium tuberculosis H37Rv infected in BALB/c mouse assessed as reduction in bacterial load in lung at 100 mg/kg, po and measured after 3 weeks; type: functional
[15] = system: Mycobacterium tuberculosis; assay: In vivo antimycobacterial activity against Mycobacterium tuberculosis H37Rv infected in BALB/c mouse assessed as reduction in bacterial load in lung at 200 mg/kg, po and measured after 4 weeks; type: functional
[16] = system: Mycobacterium tuberculosis; assay: Antimycobacterial activity against Mycobacterium tuberculosis CIP103471 infected in human U-937 cells assessed as bacterial growth inhibition incubated for 7 days; type: functional; conditions: CIP103471, 168 h, time 7 day
[17] = system: Mycobacterium tuberculosis; assay: Antitubercular activity against Mycobacterium tuberculosis ATCC 27294 (H37Rv) assessed as bacterial growth inhibition by agar dilution method; type: functional
[18] = system: Mycobacterium tuberculosis; assay: Antitubercular activity against Mycobacterium tuberculosis assessed as bacterial growth inhibition in 7H9 medium incubated for 5 days by microplate reader analysis; type: functional; conditions: 120 h, time 5 day
[19] = system: Mycobacterium tuberculosis; assay: In vivo antimycobacterial activity against Mycobacterium tuberculosis H37Rv infected in BALB/c mouse assessed as reduction in bacterial load in lungs at 40 to 100 mg/kg, po and measured after 4 weeks; type: functional; conditions: dose 40-100 mg/kg
[20] = system: Mycobacterium tuberculosis; assay: In vivo antimycobacterial activity against Mycobacterium tuberculosis H37Rv infected in BALB/c mouse assessed as reduction in bacterial load in spleen at 40 to 100 mg/kg, po and measured after 4 weeks; type: functional; conditions: dose 40-100 mg/kg
[21] = system: Mycobacterium tuberculosis; assay: Antitubercular activity against Mycobacterium tuberculosis H37Rv assessed as bacterial growth inhibition incubated for 6 days by MABA analysis; type: functional; conditions: 144 h, time 6 day
[22] = system: Mycobacterium tuberculosis; assay: Antitubercular activity against Mycobacterium tuberculosis H37Rv expressing the luxABCDE operon assessed as bacterial growth inhibition incubated for 28 hrs in aerobic condition by luminescence analysis; type: functional
[23] = system: Mycobacterium tuberculosis; assay: Antitubercular activity against Mycobacterium tuberculosis H37Rv expressing the luxABCDE operon assessed as bacterial growth inhibition incubated for 5 days in low oxygen condition by LORA Assay; type: functional; conditions: 120 h, time 5 day
[24] = system: Mycobacterium tuberculosis; assay: Antitubercular activity against Mycobacterium tuberculosis H37Rv expressing the luxABCDE operon infected in human THP-1 cells assessed as reduction in intracellular bacterial load incubated for 72 hrs by luminescence analysis; type: functional, organism-based; conditions: THP-1, 72 h
[25] = system: Mycobacterium tuberculosis; assay: Antitubercular activity against Mycobacterium tuberculosis Erdman assessed as bacterial growth inhibition; type: functional
[26] = system: Mycobacterium tuberculosis; assay: Antitubercular activity against Mycobacterium tuberculosis H37Rv assessed as bacterial growth inhibition incubated for 7 days by microplate alamar blue assay; type: functional; conditions: 168 h, time 7 day
[27] = system: Mycobacterium tuberculosis; assay: Antitubercular activity against Mycobacterium tuberculosis H37Rv assessed as bacterial growth inhibition incubated for 7 days by Alamar blue based fluorescence assay; type: functional; conditions: 168 h, time 7 day

## CC(C)=CCC/C(C)=C/CNCCNC1C2CC3CC(C2)CC1C3 (stereo not drawn) [SQ109]
[1]
  MIC: 0.7 µM (≈ 0.231 µg/mL)
[2]
  Activity: 99%
[3]
  selectivity ratio: 16.7

## COc1nc2ccc(Br)cc2cc1[C@@H](c1ccccc1)[C@@](O)(CCN(C)C)c1cccc2ccccc12 [BEDAQUILINE]
[4]
  MIC: 0.03 µg/mL (≈ 0.054 µM)
[5]
  MIC: 0.01 µg/mL (≈ 0.018 µM)

## C=CCN1C(=O)NC(=O)/C(=C/NNC(=O)c2ccncc2)C1=O
[6]
  inhibition zone (IZ): 20 mm
[7]
  Activity: 1 log10CFU
[8]
  Activity: 2.1 log10CFU
[9]
  Activity: 0.6 log10CFU
[10]
  Activity: 1.3 log10CFU

## O=C(Nc1ccc(F)c(F)c1F)NC12CC3CC(CC(C3)C1)C2
[11]
  MIC: 0.1 µg/mL (≈ 0.308 µM)

## CCOC(=O)NC(=O)c1ccsc1NC(=O)c1nc2ccncc2s1
[12]
  MIC: 0.089 µM (≈ 0.0335 µg/mL)
[13]
  Activity: 1.7 log10CFU
[14]
  Activity: 2.3 log10CFU
[15]
  Activity: >1.7 log10CFU

## Cc1c(CN2CCN(C)CC2)cc(-c2ccc(Cl)cc2)n1-c1ccc(Cl)cc1
[16]
  MIC: 1 µg/mL (≈ 2.41 µM)

## CCOC(=O)NC(=O)c1ccsc1NC(=O)c1nc2ccccc2s1
[17]
  MIC: 0.19 µg/mL (≈ 0.506 µM)
[18]
  MIC: 0.19 µg/mL (≈ 0.506 µM)
[19]
  Activity: 2 log10CFU
[20]
  Activity: 3 log10CFU

## CCOC(=O)c1c(NC(=O)c2c(F)c(F)c(F)c(F)c2F)sc2c1CCN(CC)C2
[21]
  MIC: 0.69 µM (≈ 0.309 µg/mL)
[22]
  MIC: 0.23 µM (≈ 0.103 µg/mL)
[23]
  MIC: > 200 µM
[24]
  IC50: 5.6 µM

## Cc1c(OCC(F)(F)F)ccnc1CSc1nc2ccccc2[nH]1 [LANSOPRAZOLE SULFIDE]
[4]
  MIC90: 1.13 µM (≈ 0.399 µg/mL)
[25]
  MIC90: 1.21 µM (≈ 0.428 µg/mL)

## O=c1cc(-c2ccccc2O)oc2ccc(O)c(CN3CCC3)c12
[26]
  MIC: 0.45 µg/mL (≈ 1.39 µM)

## COc1ncccc1Nc1cc2nc3ccccc3n(-c3ccc(OC(F)(F)F)cc3)c-2c/c1=N\C1CCC(OC)CC1 (stereo not drawn)
[27]
  MIC: 0.016 µg/mL (≈ 0.0271 µM)
